Measurements taken from patent US6355620B1, “C-2 modified erythromycin derivatives” (Abbott Laboratories, priority 1999, dated 2002).

Tests used:
Test in all cases: In vitro antibacterial activity, agar dilution MIC
Format in all cases: cell-based
Candida albicans CCH 442 = conditions: code TT, BHI agar, 35-37° C., 20 to 24 hours, unit assumed
Protocol: (§1) Representative compounds of the present invention were assayed in vitro for antibacterial activity as follows: Twelve petri dishes containing successive aqueous dilutions of the test compound mixed with 10 mL of sterilized Brain Heart Infusion (BHI) agar (Difco 0418-01-5) were prepared. Each plate was inoculated with 1:100 (or 1:10 for slow-growing strains, such as Micrococcus and Streptococcus) dilutions of up to 32 different microorganisms, using a Steers replicator block. The inoculated plates were incubated at 35-37° C. for 20 to 24 hours. In addition, a control plate, using BHI agar containing no test compound, was prepared and incubated at the beginning and end of each test.
(§2) An additional plate containing a compound having known susceptibility patterns for the organisms being tested and belonging to the same antibiotic class as the test compound was also prepared and incubated as a further control, as well as to provide test-to-test comparability.
(§3) After incubation, each plate was visually inspected. The minimum inhibitory concentration (MIC) was defined as the lowest concentration of drug yielding no growth, a slight haze, or sparsely isolated colonies on the inoculum spot as compared to the growth control.

[1] = test system: Mycobacterium smegmatis ATCC 114; conditions: code UU, BHI agar, 35-37° C., 20 to 24 hours, unit assumed
Protocol: as §1, §2, §3

[2] = test system: Streptococcus pyogenes 930; conditions: code MM, BHI agar, 35-37° C., 20 to 24 hours, unit assumed
Protocol: as §1, §2, §3

[3] = test system: Streptococcus Pneumonia 5979; conditions: code ZZ, BHI agar, 35-37° C., 20 to 24 hours, unit assumed
Protocol: as §1, §2, §3

Escherichiacoli SS = conditions: code RR, BHI agar, 35-37° C., 20 to 24 hours, unit assumed
Protocol: as §1, §2, §3

[4] = test system: Nocardia Asteroides ATCC 99700; conditions: code VV, BHI agar, 35-37° C., 20 to 24 hours, unit assumed
Protocol: as §1, §2, §3

[5] = test system: Streptococcus agalactiae CMX 508; conditions: code KK, BHI agar, 35-37° C., 20 to 24 hours, unit assumed
Protocol: as §1, §2, §3

[6] = test system: Staphylococcus aureus NCTC 10649M; conditions: code EE, BHI agar, 35-37° C., 20 to 24 hours, unit assumed
Protocol: as §1, §2, §3

[7] = test system: Staphylococcus epidermidis 3519; conditions: code HH, BHI agar, 35-37° C., 20 to 24 hours, unit assumed
Protocol: as §1, §2, §3

[8] = test system: Staphylococcus aureus A-5278; conditions: code CC, BHI agar, 35-37° C., 20 to 24 hours, unit assumed
Protocol: as §1, §2, §3

[9] = test system: Staphylococcus aureus CMX 642A; conditions: code DD, BHI agar, 35-37° C., 20 to 24 hours, unit assumed
Protocol: as §1, §2, §3

[10] = test system: Staphylococcus aureus CMX 553; conditions: code FF, BHI agar, 35-37° C., 20 to 24 hours, unit assumed
Protocol: as §1, §2, §3

[11] = test system: Micrococcusluteus ATCC 9341; conditions: code OO, BHI agar, 35-37° C., 20 to 24 hours, unit assumed
Protocol: as §1, §2, §3

[12] = test system: Streptococcus Pneumonia ATCC 6303; conditions: code XX, BHI agar, 35-37° C., 20 to 24 hours, unit assumed
Protocol: as §1, §2, §3

Escherichiacoli DC-2 = conditions: code SS, BHI agar, 35-37° C., 20 to 24 hours, unit assumed
Protocol: as §1, §2, §3

[13] = test system: Haemophilislnfluenzae DILL AMP R; conditions: code WW, BHI agar, 35-37° C., 20 to 24 hours, unit assumed
Protocol: as §1, §2, §3

[14] = test system: Streptococcus Pneumonia 5649; conditions: code ZZA, BHI agar, 35-37° C., 20 to 24 hours, unit assumed
Protocol: as §1, §2, §3

[15] = test system: Staphylococcus aureus A-5177; conditions: code BB, BHI agar, 35-37° C., 20 to 24 hours, unit assumed
Protocol: as §1, §2, §3

[16] = test system: Streptococcus pyogenes EES61; conditions: code LL, BHI agar, 35-37° C., 20 to 24 hours, unit assumed
Protocol: as §1, §2, §3

[17] = test system: Streptococcus pyogenes PIU 2548; conditions: code NN, BHI agar, 35-37° C., 20 to 24 hours, unit assumed
Protocol: as §1, §2, §3

[18] = test system: Streptococcus bovis A-5169; conditions: code JJ, BHI agar, 35-37° C., 20 to 24 hours, unit assumed
Protocol: as §1, §2, §3

[19] = test system: Enterococcusfaecium ATCC X043; conditions: code II, BHI agar, 35-37° C., 20 to 24 hours, unit assumed
Protocol: as §1, §2, §3

[20] = test system: Staphylococcus aureus 1775; conditions: code GG, BHI agar, 35-37° C., 20 to 24 hours, unit assumed
Protocol: as §1, §2, §3

Escherichiacoli JUHL = conditions: code QQ, BHI agar, 35-37° C., 20 to 24 hours, unit assumed
Protocol: as §1, §2, §3

[21] = test system: Streptococcus Pneumonia GYR 1171; conditions: code YY, BHI agar, 35-37° C., 20 to 24 hours, unit assumed
Protocol: as §1, §2, §3

[22] = test system: Micrococcusluteus ATCC 4698; conditions: code PP, BHI agar, 35-37° C., 20 to 24 hours, unit assumed
Protocol: as §1, §2, §3

[23] = test system: Staphylococcus aureus ATCC 6538P; conditions: code AA, BHI agar, 35-37° C., 20 to 24 hours, unit assumed
Protocol: as §1, §2, §3

Row | SMILES | Antibacterial Activity (MIC) (Candida albicans CCH 442) [µg/mL] | Antibacterial Activity (MIC) [1] [µg/mL] | Antibacterial Activity (MIC) [2] [µg/mL] | Antibacterial Activity (MIC) [3] [µg/mL] | Antibacterial Activity (MIC) (Escherichiacoli SS) [µg/mL] | Antibacterial Activity (MIC) [4] [µg/mL] | Antibacterial Activity (MIC) [5] [µg/mL] | Antibacterial Activity (MIC) [6] [µg/mL] | Antibacterial Activity (MIC) [7] [µg/mL] | Antibacterial Activity (MIC) [8] [µg/mL] | Antibacterial Activity (MIC) [9] [µg/mL] | Antibacterial Activity (MIC) [10] [µg/mL] | Antibacterial Activity (MIC) [11] [µg/mL] | Antibacterial Activity (MIC) [12] [µg/mL] | Antibacterial Activity (MIC) (Escherichiacoli DC-2) [µg/mL] | Antibacterial Activity (MIC) [13] [µg/mL] | Antibacterial Activity (MIC) [14] [µg/mL] | Antibacterial Activity (MIC) [15] [µg/mL] | Antibacterial Activity (MIC) [16] [µg/mL] | Antibacterial Activity (MIC) [17] [µg/mL] | also measured
1 | CCC1OC(=O)C(C)(O)C(=O)C(C)C(OC2OC(C)CC(N(C)C)C2O)C(C)(OCC(O)CO)CC(C)C(=O)C(C)C2NC(=O)OC12C (stereo not drawn) [Example 3, Compound of formula (II): R^a is —CH2CH(OH)CH2OH, R^b is H, Y and Z together are O, T is —NH—, R is —OH] | > 100 | > 100 | > 100 | > 128 | 100 | > 100 | 50 | > 100 | > 100 | > 100 | > 100 | > 100 | 50 | 64 | > 100 | > 128 | > 128 | > 100 | 100 | > 100 | Antibacterial Activity (MIC) [18]: 50 µg/mL; Antibacterial Activity (MIC) [19]: 100 µg/mL; Antibacterial Activity (MIC) [20]: > 100 µg/mL; Antibacterial Activity (MIC) (Escherichiacoli JUHL): > 100 µg/mL; Antibacterial Activity (MIC) [21]: 32 µg/mL; Antibacterial Activity (MIC) [22]: > 100 µg/mL; Antibacterial Activity (MIC) [23]: > 100 µg/mL
2 | C=CCC1(C)C(=O)OC(CC)C2(C)OC(=O)NC2C(C)C(=O)C(C)CC(C)(OCC=Cc2cnc3ccccc3c2)C(OC2OC(C)CC(N(C)C)C2O)C(C)C1=O (stereo not drawn) [Example 4, Compound of formula (II): R^a is —CH2CH═CH-(3-quinolinyl), R^b is H, Y and Z together are O, T is —NH—, R is —CH2CH═CH2] | > 100 | 3.1 | 12.5 | 64 | 3.1 | 0.1 | 0.2 | 0.78 | 0.39 | > 100 | 0.78 | 0.39 | 0.1 | 0.25 | > 100 | 16 | 2 | 0.39 | 0.1 | 0.78 | Antibacterial Activity (MIC) [18]: 0.05 µg/mL; Antibacterial Activity (MIC) [19]: 0.2 µg/mL; Antibacterial Activity (MIC) [20]: > 100 µg/mL; Antibacterial Activity (MIC) (Escherichiacoli JUHL): > 100 µg/mL; Antibacterial Activity (MIC) [21]: 0.25 µg/mL; Antibacterial Activity (MIC) [22]: 0.78 µg/mL; Antibacterial Activity (MIC) [23]: 0.78 µg/mL
3 | CCC1OC(=O)C(C)(O)C(=O)C(C)C(OC2OC(C)CC(N(C)C)C2O)C(C)(OCC=Cc2cnc3ccccc3c2)CC(C)C(=O)C(C)C2NC(=O)OC12C (stereo not drawn) [Example 8, Compound of formula (II): R^a is —CH2CH═CH-(3-quinolinyl), R^b is H, Y and Z together are O, T is —NH—, R is —OH] | > 100 | 3.1 | 50 | 128 | 0.2 | 0.39 | 0.01 | 0.78 | 0.39 | > 100 | 0.39 | 0.78 | 0.02 | 0.03 | > 100 | 16 | 0.5 | 0.39 | 0.02 | 0.39 | Antibacterial Activity (MIC) [18]: 0.02 µg/mL; Antibacterial Activity (MIC) [19]: 0.2 µg/mL; Antibacterial Activity (MIC) [20]: > 100 µg/mL; Antibacterial Activity (MIC) (Escherichiacoli JUHL): > 100 µg/mL; Antibacterial Activity (MIC) [21]: 0.03 µg/mL; Antibacterial Activity (MIC) [22]: 0.2 µg/mL; Antibacterial Activity (MIC) [23]: 0.39 µg/mL
